Measured values as given in patent US7256187B2, “Rifamycin C-11 oxime derivatives effective against drug-resistant microbes” (Cumbre Pharmaceuticals Inc., priority 2004, dated 2007).
Converted amounts (≈) assume the structure as drawn.

Key:
Assay type in all cases: cell-based
[1] = test system: Staphylococcus aureus ATCC29213 rpoB^D417Y; experiment: microbe, parasite or virus in culture; conditions: Staphylococcus aureus ATCC29213 rpoB^D417Y, rifR; read-out: Antimicrobial activity (MIC)
Protocol: (§1) Representative compounds were assayed for antimicrobial activity as follows: Minimum Inhibitory Concentrations (“MICs”) were determined by the microbroth dilution method as per NCCLS guidelines (National Committee for Clinical Laboratory Standards. 2000. Methods for dilution antimicrobial susceptibility tests for bacteria that grow aerobically, 5th ed. M7-A5. National Committee for Clinical Laboratory Standards, Wayne, Pa.), except that all growth incubations were conducted at 37° C. Bacterial cultures were tested in the following bacteriological media: S. aureus, S. epidermidis, and E. coli in Cation-Adjusted Mueller-Hinton Broth, S. pneumoniae in THY Broth supplemented with 1 mg/mL catalase under 5% CO2 atmosphere, S. pyogenes in THY Broth, E. faecalis in BHI Broth, H. influenzae in BHI Broth supplemented with 0.75 μL of 1 mg/mL NAD and 150 μL of 1 mg/ml hematin per 5 mL, and M. smegmatis in Middlebrook Broth plus ADC Enrichment.
(§2) S. aureus ATCC 29213 RpoB^H418Y is a rifampin-resistant strain with a mutation in the RpoB gene of RNA polymerase. […] S. aureus EN1252a gyrA^S84L grlA^S80F is a quinolone-resistant strain due to double gene mutations of DNA gyrase and topoisomerase IV.

[2] = test system: Staphylococcus aureus ATCC29213 rpoB^H418Y; experiment: microbe, parasite or virus in culture; conditions: Staphylococcus aureus ATCC29213 rpoB^H418Y, rifR; read-out: Antimicrobial activity (MIC)
Protocol: as §1, §2

[3] = test system: Staphylococcus aureus EN1252a gyrA^S84L grlA^S80F; experiment: microbe, parasite or virus in culture; conditions: Staphylococcus aureus EN1252a gyrA^S84L grlA^S80F, cipR; read-out: Antimicrobial activity (MIC)
Protocol: as §1, §2

[4] = test system: Staphylococcus aureus ATCC29213; experiment: MIC, microbroth dilution; conditions: Staphylococcus aureus ATCC29213, rifS; read-out: Antimicrobial activity (MIC)
[5] = test system: Escherichia coli ATCC25922; experiment: MIC, microbroth dilution; conditions: Escherichia coli ATCC25922, rifS; read-out: Antimicrobial activity (MIC)
[6] = test system: Haemophilus influenzae ATCC10211; experiment: MIC, microbroth dilution; conditions: Haemophilus influenzae ATCC10211, rifS; read-out: Antimicrobial activity (MIC)
[7] = test system: Mycobacterium smegmatis ATCC700084; experiment: MIC, microbroth dilution; conditions: Mycolicibacterium smegmatis; Mycobacterium smegmatis ATCC700084, rifS; read-out: Antimicrobial activity (MIC)
[8] = test system: Enterococcus faecalis ATCC29212; experiment: MIC, microbroth dilution; conditions: Enterococcus faecalis ATCC29212, rifS; read-out: Antimicrobial activity (MIC)
[9] = test system: Staphylococcus epidermidis ATCC12228; experiment: MIC, microbroth dilution; conditions: Staphylococcus epidermidis ATCC12228, rifS; read-out: Antimicrobial activity (MIC)
[10] = test system: Streptococcus pyogenes ATCC19615; experiment: MIC, microbroth dilution; conditions: Streptococcus pyogenes ATCC19615, rifS; read-out: Antimicrobial activity (MIC)
[11] = test system: Streptococcus pneumoniae ATCC6303; experiment: MIC, microbroth dilution; conditions: Streptococcus pneumoniae ATCC6303, rifS; read-out: Antimicrobial activity (MIC)

Row | SMILES | MIC [1] [µg/mL] | MIC [2] [µg/mL] | MIC [3] [µg/mL] | MIC [4] [µg/mL] | MIC [5] [µg/mL] | MIC [6] [µg/mL] | MIC [7] [µg/mL] | MIC [8] [µg/mL] | MIC [9] [µg/mL] | MIC [10] [µg/mL] | MIC [11] [µg/mL]
1 | COCCOCO/N=C1/c2c3c(C)c(O)c4c2C(=O)C=C(NC(=O)/C(C)=C\C=C\[C@H](C)[C@H](O)[C@@H](C)[C@@H](O)[C@@H](C)[C@H](OC(C)=O)[C@H](C)[C@@H](OC)/C=C/O[C@@]1(C)O3)C4=O [Example 10, 11-Deoxy-11-methoxyethoxymethoxyiminorifamycin S] | 0.25 to 32 (≈ 0.313 to 40.1 µM) | 0.125 to 16 (≈ 0.156 to 20 µM) | 0.004 to 0.5 (≈ 0.00501 to 0.626 µM) | 0.004 to 0.5 (≈ 0.00501 to 0.626 µM) | 0.125 to 8 (≈ 0.156 to 10 µM) | 0.03 to 2 (≈ 0.0376 to 2.5 µM) | 0.5 to 64 (≈ 0.626 to 80.1 µM) | 2 to 32 (≈ 2.5 to 40.1 µM) | 0.0005 to 0.063 (≈ 0.000626 to 0.0789 µM) | 0.0005 to 0.063 (≈ 0.000626 to 0.0789 µM) | 0.0002 to 0.125 (≈ 0.00025 to 0.156 µM)
2 | C=CCO/N=C1/c2c3c(C)c(O)c4c2C(=O)C=C(NC(=O)/C(C)=C\C=C\[C@H](C)[C@H](O)[C@@H](C)[C@@H](O)[C@@H](C)[C@H](OC(C)=O)[C@H](C)[C@@H](OC)/C=C/O[C@@]1(C)O3)C4=O [Example 11, 11-Deoxy-11-allyloxyiminorifamycin S] | 0.25 to 32 (≈ 0.333 to 42.6 µM) | 0.125 to 16 (≈ 0.166 to 21.3 µM) | 0.004 to 0.5 (≈ 0.00533 to 0.666 µM) | 0.004 to 0.5 (≈ 0.00533 to 0.666 µM) | 0.125 to 8 (≈ 0.166 to 10.7 µM) | 0.03 to 2 (≈ 0.04 to 2.66 µM) | 0.5 to 64 (≈ 0.666 to 85.2 µM) | 2 to 32 (≈ 2.66 to 42.6 µM) | 0.0005 to 0.063 (≈ 0.000666 to 0.0839 µM) | 0.0005 to 0.063 (≈ 0.000666 to 0.0839 µM) | 0.0002 to 0.125 (≈ 0.000266 to 0.166 µM)
3 | CO[C@H]1/C=C/O[C@@]2(C)Oc3c(C)c(O)c4c(c3/C2=N/OCCBr)C(=O)C=C(NC(=O)/C(C)=C\C=C\[C@H](C)[C@H](O)[C@@H](C)[C@@H](O)[C@@H](C)[C@H](OC(C)=O)[C@@H]1C)C4=O [Example 12, 11-Deoxy-11-(2-bromoethoxyimino)rifamycin S] | 0.25 to 32 (≈ 0.306 to 39.1 µM) | 0.125 to 16 (≈ 0.153 to 19.6 µM) | 0.004 to 0.5 (≈ 0.00489 to 0.611 µM) | 0.004 to 0.5 (≈ 0.00489 to 0.611 µM) | 0.125 to 8 (≈ 0.153 to 9.78 µM) | 0.03 to 2 (≈ 0.0367 to 2.45 µM) | 0.5 to 64 (≈ 0.611 to 78.3 µM) | 2 to 32 (≈ 2.45 to 39.1 µM) | 0.0005 to 0.063 (≈ 0.000611 to 0.077 µM) | 0.0005 to 0.063 (≈ 0.000611 to 0.077 µM) | 0.0002 to 0.125 (≈ 0.000245 to 0.153 µM)
4 | COc1c(N2CCN(CCO/N=C3/c4c5c(C)c(O)c6c4C(=O)C=C(NC(=O)/C(C)=C\C=C\[C@H](C)[C@H](O)[C@@H](C)[C@@H](O)[C@@H](C)[C@H](OC(C)=O)[C@H](C)[C@@H](OC)/C=C/O[C@@]3(C)O5)C6=O)C(C)C2)c(F)cc2c(=O)c(C(=O)O)cn(C3CC3)c12 (some centres unmarked) [Example 13] | 0.25 to 32 (≈ 0.225 to 28.8 µM) | 0.125 to 16 (≈ 0.112 to 14.4 µM) | 0.004 to 0.5 (≈ 0.0036 to 0.45 µM) | 0.004 to 0.5 (≈ 0.0036 to 0.45 µM) | 0.125 to 8 (≈ 0.112 to 7.19 µM) | 0.03 to 2 (≈ 0.027 to 1.8 µM) | 0.5 to 64 (≈ 0.45 to 57.5 µM) | 2 to 32 (≈ 1.8 to 28.8 µM) | 0.0005 to 0.063 (≈ 0.00045 to 0.0566 µM) | 0.0005 to 0.063 (≈ 0.00045 to 0.0566 µM) | 0.0002 to 0.125 (≈ 0.00018 to 0.112 µM)
5 | CO[C@H]1/C=C/O[C@@]2(C)Oc3c(C)c(O)c4c(c3/C2=N/OCCN2CCN(c3cc5c(cc3F)c(=O)c(C(=O)O)cn5C3CC3)CC2)C(=O)C=C(NC(=O)/C(C)=C\C=C\[C@H](C)[C@H](O)[C@@H](C)[C@@H](O)[C@@H](C)[C@H](OC(C)=O)[C@@H]1C)C4=O [Example 15] | 0.25 to 32 (≈ 0.234 to 30 µM) | 0.125 to 16 (≈ 0.117 to 15 µM) | 0.004 to 0.5 (≈ 0.00374 to 0.468 µM) | 0.004 to 0.5 (≈ 0.00374 to 0.468 µM) | 0.125 to 8 (≈ 0.117 to 7.49 µM) | 0.03 to 2 (≈ 0.0281 to 1.87 µM) | 0.5 to 64 (≈ 0.468 to 59.9 µM) | 2 to 32 (≈ 1.87 to 30 µM) | 0.0005 to 0.063 (≈ 0.000468 to 0.059 µM) | 0.0005 to 0.063 (≈ 0.000468 to 0.059 µM) | 0.0002 to 0.125 (≈ 0.000187 to 0.117 µM)
6 | CO[C@H]1/C=C/O[C@@]2(C)Oc3c(C)c(O)c4c(c3/C2=N/OCCN2CCN(c3ccc(N5C[C@H](CNC(C)=O)OC5=O)cc3F)CC2)C(=O)C=C(NC(=O)/C(C)=C\C=C\[C@H](C)[C@H](O)[C@@H](C)[C@@H](O)[C@@H](C)[C@H](OC(C)=O)[C@@H]1C)C4=O [Example 16] | 0.25 to 32 (≈ 0.233 to 29.8 µM) | 0.125 to 16 (≈ 0.116 to 14.9 µM) | 0.004 to 0.5 (≈ 0.00373 to 0.466 µM) | 0.004 to 0.5 (≈ 0.00373 to 0.466 µM) | 0.125 to 8 (≈ 0.116 to 7.45 µM) | 0.03 to 2 (≈ 0.028 to 1.86 µM) | 0.5 to 64 (≈ 0.466 to 59.6 µM) | 2 to 32 (≈ 1.86 to 29.8 µM) | 0.0005 to 0.063 (≈ 0.000466 to 0.0587 µM) | 0.0005 to 0.063 (≈ 0.000466 to 0.0587 µM) | 0.0002 to 0.125 (≈ 0.000186 to 0.116 µM)
7 | CO[C@H]1/C=C/O[C@@]2(C)Oc3c(C)c(O)c4c(c3/C2=N/OCCN2CCN(c3ccccn3)CC2)C(=O)C=C(NC(=O)/C(C)=C\C=C\[C@H](C)[C@H](O)[C@@H](C)[C@@H](O)[C@@H](C)[C@H](OC(C)=O)[C@@H]1C)C4=O [Example 17] | 0.25 to 32 (≈ 0.278 to 35.6 µM) | 0.125 to 16 (≈ 0.139 to 17.8 µM) | 0.004 to 0.5 (≈ 0.00444 to 0.556 µM) | 0.004 to 0.5 (≈ 0.00444 to 0.556 µM) | 0.125 to 8 (≈ 0.139 to 8.89 µM) | 0.03 to 2 (≈ 0.0333 to 2.22 µM) | 0.5 to 64 (≈ 0.556 to 71.1 µM) | 2 to 32 (≈ 2.22 to 35.6 µM) | 0.0005 to 0.063 (≈ 0.000556 to 0.07 µM) | 0.0005 to 0.063 (≈ 0.000556 to 0.07 µM) | 0.0002 to 0.125 (≈ 0.000222 to 0.139 µM)
